The text below walks through data of PubChem BioAssay AID248 (DTP/NCI, 2004).

The test system of this experiment is L1210 leukemia ip in BDF1 mice, survival T/C. In words: NCI In Vivo Anticancer Drug Screen. Data for tumor model L1210 Leukemia (intraperitoneal) in B6D2F1 (BDF1) mice. The settings on record: endpoint: mean survival time, higher = longer survival. The gist of the method: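 Survival endpoint. Drug-treated group vs vehicle group, expressed as T divided by C. Tumor passaged by transplantation.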

The mark [1] stands for this setting: dose: 100.0 mg/kg/injection, schedule: Q01DX009 (ip), vehicle: Klucel (hydroxypropylcellulose) (HPC).
Setting [2] is: dose: 100.0 mg/kg/injection, schedule: Q04DX003 (ip), vehicle: Klucel (hydroxypropylcellulose) (HPC).
[3] abbreviates: dose: 200.0 mg/kg/injection, schedule: Q01DX009 (ip), vehicle: Klucel (hydroxypropylcellulose) (HPC).
[4] abbreviates: dose: 200.0 mg/kg/injection, schedule: Q04DX003 (ip), vehicle: Klucel (hydroxypropylcellulose) (HPC).
The mark [5] stands for this setting: dose: 400.0 mg/kg/injection, schedule: Q04DX003 (ip), vehicle: Klucel (hydroxypropylcellulose) (HPC).
Setting [6] is: dose: 100.0 mg/kg/injection, schedule: Q04DX003 (ip), vehicle: saline with Tween-80.
The mark [7] stands for this setting: dose: 200.0 mg/kg/injection, schedule: Q04DX003 (ip), vehicle: saline with Tween-80.
Setting [8] is: dose: 100.0 mg/kg/injection, schedule: Q01DX009 (ip), vehicle: saline with Tween-80.
The mark [9] stands for this setting: dose: 100.0 mg/kg/injection, schedule: Q01DX001 (ip), vehicle: saline.
The mark [10] stands for this setting: dose: 200.0 mg/kg/injection, schedule: Q01DX001 (ip), vehicle: saline.
Setting [11] is: dose: 100.0 mg/kg/injection, schedule: Q04DX003 (ip), vehicle: other.
[12] abbreviates: dose: 200.0 mg/kg/injection, schedule: Q04DX003 (ip), vehicle: other.
Where [13] appears, read: dose: 100.0 mg/kg/injection, schedule: Q04DX003 (ip), vehicle: saline.
Setting [14] is: dose: 200.0 mg/kg/injection, schedule: Q04DX003 (ip), vehicle: saline.
[15] abbreviates: dose: 400.0 mg/kg/injection, schedule: Q04DX003 (ip), vehicle: saline.

The structures appear in SMILES notation. “And” between values parts separate entries of the source, which are not always exact repeats. Identical values can stand only once. Toxic doses and inconclusive results are not listed.

For `Nc1nc(N)c(-c2ccc(Cl)cc2)c(CNc2ccc(/C=C/C3(CCl)OCCO3)cc2)n1`, the T/C is, setting by setting: (dose: 100.0 mg/kg/injection, schedule: Q01DX001 (ip), vehicle: saline with Tween-80) 92 % of control; (dose: 200.0 mg/kg/injection, schedule: Q01DX001 (ip), vehicle: saline with Tween-80) 100 % of control; (dose: 400.0 mg/kg/injection, schedule: Q01DX001 (ip), vehicle: saline with Tween-80) 96 % of control.
With `CN(C)S(=O)(=O)c1ccc(Nc2ccc(O)c3c2C(=O)c2c([N+](=O)[O-])ccc(O)c2C3=O)cc1`, the T/C (dose: 75.0 mg/kg/injection, schedule: Q01DX001 (ip), vehicle: steriod suspending solution) was 98 % of control; the T/C (dose: 150.0 mg/kg/injection, schedule: Q01DX001 (ip), vehicle: steriod suspending solution) was 98 % of control; the T/C (dose: 300.0 mg/kg/injection, schedule: Q01DX001 (ip), vehicle: steriod suspending solution) is 100 % of control.
Turning to `CC1(C)CCC(=NNC(N)=S)CC1`, the T/C is 101 % of control (dose: 5.0 mg/kg/injection, schedule: Q01DX001 (ip), vehicle: carboxymethylcellulose (CMC)); 97 % of control (dose: 10.0 mg/kg/injection, schedule: Q01DX001 (ip), vehicle: carboxymethylcellulose (CMC)); 92 % of control (dose: 20.0 mg/kg/injection, schedule: Q01DX001 (ip), vehicle: carboxymethylcellulose (CMC)); 92 % of control (dose: 40.0 mg/kg/injection, schedule: Q01DX001 (ip), vehicle: carboxymethylcellulose (CMC)).
Turning to `O=C(OCC1OC(n2nc3ccnc(Cl)c3n2)C(OC(=O)c2ccccc2)C1OC(=O)c1ccccc1)c1ccccc1` (stereo not given), the T/C is, setting by setting: (dose: 50.0 mg/kg/injection, schedule: Q01DX005 (ip), vehicle: saline) 105 % of control; (dose: 100.0 mg/kg/injection, schedule: Q01DX005 (ip), vehicle: saline) 102 % of control; (dose: 200.0 mg/kg/injection, schedule: Q01DX005 (ip), vehicle: saline) 110 % of control.
In the case of `CC(=O)c1ccc2c(c1)Nc1ccccc1S2`, the T/C reads like this: (dose: 50.0 mg/kg/injection, schedule: Q04DX003 (ip), vehicle: Klucel (hydroxypropylcellulose) (HPC)) 97 % of control; under setting [1], 104 % of control and 102 % of control; under setting [2], 101 % of control; under setting [3], 106 % of control and 94 % of control; under setting [4], 102 % of control; (dose: 400.0 mg/kg/injection, schedule: Q01DX009 (ip), vehicle: Klucel (hydroxypropylcellulose) (HPC)) 95 % of control and 91 % of control. In addition, under setting [5], the T/C is 91 % of control.
`COc1cc(Cn2cccc2/C=C(\C#N)C(N)=O)cc(OC)c1`: the T/C reads like this: (dose: 25.0 mg/kg/injection, schedule: Q04DX002 (ip), vehicle: Klucel (hydroxypropylcellulose) (HPC)) 94 % of control; (dose: 50.0 mg/kg/injection, schedule: Q04DX002 (ip), vehicle: Klucel (hydroxypropylcellulose) (HPC)) 97 % of control; (dose: 100.0 mg/kg/injection, schedule: Q04DX002 (ip), vehicle: Klucel (hydroxypropylcellulose) (HPC)) 105 % of control.
Consider `Nc1ccc(S(=O)(=O)NC(=O)NCc2ccccc2)cc1`, for which the T/C by setting is: under setting [6], 101 % of control; under setting [7], 98 % of control; (dose: 400.0 mg/kg/injection, schedule: Q04DX003 (ip), vehicle: saline with Tween-80) 101 % of control.
For the compound `O=NC1C(Cl)C2CC1C1C=CCC12` (stereo not given), the T/C by setting is: (dose: 12.5 mg/kg/injection, schedule: Q01DX009 (ip), vehicle: Klucel (hydroxypropylcellulose) (HPC)) 96 % of control; (dose: 25.0 mg/kg/injection, schedule: Q01DX009 (ip), vehicle: Klucel (hydroxypropylcellulose) (HPC)) 98 % of control; (dose: 50.0 mg/kg/injection, schedule: Q01DX009 (ip), vehicle: Klucel (hydroxypropylcellulose) (HPC)) 91 % of control; under setting [8], 97 % of control; under setting [2], 94 % of control; under setting [4], 92 % of control. Also, the T/C under setting [5] is 87 % of control.
`COc1ccc(OC)c2c(C)cc(=O)[nH]c12`: the T/C runs as follows: under setting [9], 97 % of control; under setting [10], 98 % of control.
With `NC(CCCC(N)C(=O)CCl)C(=O)O` (stereo not given), the T/C by setting is: (dose: 25.0 mg/kg/injection, schedule: Q04DX002 (ip), vehicle: saline) 114 % of control; (dose: 50.0 mg/kg/injection, schedule: Q04DX002 (ip), vehicle: saline) 104 % of control; (dose: 100.0 mg/kg/injection, schedule: Q04DX002 (ip), vehicle: saline) 107 % of control.
For `O=NN(CCCl)C(=O)Nc1ccc(Br)cc1`, the T/C is 122 % of control (dose: 12.0 mg/kg/injection, schedule: Q01DX009 (ip), vehicle: carboxymethylcellulose (CMC)); 124 % of control (dose: 12.0 mg/kg/injection, schedule: Q01DX015 (ip), vehicle: carboxymethylcellulose (CMC)); 154 % of control (dose: 29.0 mg/kg/injection, schedule: Q01DX015 (ip), vehicle: carboxymethylcellulose (CMC)); 114 % of control and 89 % of control (dose: 44.0 mg/kg/injection, schedule: Q01DX015 (ip), vehicle: carboxymethylcellulose (CMC)); 157 % of control (dose: 100.0 mg/kg/injection, schedule: Q01DX001 (ip), vehicle: carboxymethylcellulose (CMC)).
For `Cn1cnc([N+](=O)[O-])c1Sc1nc(N)nc2c1ncn2C1OC(CO)C(O)C1O` (stereo not given), the T/C runs as follows: (dose: 0.94 mg/kg/injection, schedule: Q01DX Z (ip), vehicle: methylcellulose (MC)) 121 % of control; (dose: 1.88 mg/kg/injection, schedule: Q01DX Z (ip), vehicle: methylcellulose (MC)) 121 % of control; (dose: 3.75 mg/kg/injection, schedule: Q01DX Z (ip), vehicle: methylcellulose (MC)) 116 % of control; (dose: 7.5 mg/kg/injection, schedule: Q01DX Z (ip), vehicle: methylcellulose (MC)) 116 % of control; (dose: 15.0 mg/kg/injection, schedule: Q01DX Z (ip), vehicle: methylcellulose (MC)) 103 % of control.
With `COc1ccc(C(=O)c2c(C(=O)O)ccc3ccccc23)cc1`, the T/C runs as follows: under setting [8], 104 % of control; under setting [11], 101 % of control; (dose: 200.0 mg/kg/injection, schedule: Q01DX009 (ip), vehicle: saline with Tween-80) 95 % of control; under setting [12], 100 % of control; (dose: 400.0 mg/kg/injection, schedule: Q01DX009 (ip), vehicle: saline with Tween-80) 106 % of control; (dose: 400.0 mg/kg/injection, schedule: Q04DX003 (ip), vehicle: other) 100 % of control.
Consider `O=[N+]([O-])c1ccc(C2N=C(c3ccccc3)CS2(=O)=O)cc1` (stereo not given), for which the T/C runs as follows: under setting [13], 97 % of control; under setting [14], 95 % of control; under setting [15], 93 % of control.
As for `O=C1CCC(N2C(=O)C3C4c5ccccc5C(c5ccccc54)C3C2=O)C(=O)N1` (stereo not given), the T/C reads like this: under setting [6], 97 % of control; under setting [13], 97 % of control; under setting [7], 93 % of control; under setting [14], 89 % of control.
Regarding `COc1ccc(C=O)c(Cl)c1OC`, the T/C runs as follows: under setting [1], 94 % of control; under setting [13], 92 % of control; under setting [3], 94 % of control; under setting [14], 108 % of control; under setting [15], 98 % of control.
Turning to `CNC(=O)c1ccc[n+](CC(=O)Nc2ccc(Cl)cc2)c1`, the T/C by setting is: (dose: 100.0 mg/kg/injection, schedule: Q04DX003 (ip), vehicle: acetone) 110 % of control; (dose: 200.0 mg/kg/injection, schedule: Q04DX003 (ip), vehicle: acetone) 98 % of control.
On to `NC(=O)Nc1cccc(Cl)c1`, for which the T/C (dose: 100.0 mg/kg/injection, schedule: Q04DX002 (ip), vehicle: gum acacia) is 106 % of control; the T/C (dose: 200.0 mg/kg/injection, schedule: Q04DX002 (ip), vehicle: gum acacia) was 98 % of control; the T/C (dose: 400.0 mg/kg/injection, schedule: Q04DX002 (ip), vehicle: gum acacia) was 106 % of control.
As for `Oc1ccc2ccccc2c1CNc1ccccc1`, the T/C runs as follows: under setting [11], 88 % of control; under setting [12], 94 % of control.
In the case of `O=C(O)c1cccc(Br)c1[N+](=O)[O-]`, the T/C runs as follows: under setting [9], 97 % of control; under setting [10], 101 % of control.
